In publication PMC5624897, “Identification of isoliquiritigenin as an activator that stimulates the enzymatic production of glycyrrhetinic acid monoglucuronide” (Scientific Reports, 2017):

Test system: T1, β-glucuronidase from P. purpurogenum Li-3 (PGUS)
T1 construct: native enzyme from mycelia of the fungus grown on GL; crude extract for kinetics, or ammonium sulfate and DEAE-cellulose
Assay: HPLC of GAMG formed; double reciprocal plot
Format: biochemical, Talaromyces purpureogenus
Conditions: control without ISL; crude β-glucuronidase solution, 2 h, 40 °C, sodium acetate buffer pH 5.0
From the text: HPLC of GAMG formed; double reciprocal plot on β-glucuronidase from P. purpurogenum Li-3 (PGUS)

K m: 410 µM
Compound: CC1(C)[C@@H](O[C@H]2O[C@H](C(=O)O)[C@@H](O)[C@H](O)[C@H]2O[C@@H]2O[C@H](C(=O)O)[C@@H](O)[C@H](O)[C@H]2O)CC[C@]2(C)[C@H]3C(=O)C=C4[C@@H]5C[C@@](C)(C(=O)O)CC[C@]5(C)CC[C@@]4(C)[C@]3(C)CC[C@@H]12 [GL, glycyrrhizin]
